According to PubChem BioAssay AID1421 (Emory University Molecular Libraries Screening Center, 2008):

Target: Prostaglandin E2 receptor EP2 subtype (Homo sapiens) (UniProt P43116)
Test: EP2 receptor modulators, dose response, cell-based, human EP2, PGE2 EC50 shift (AID 1421)
Conditions: EP2-expressing cells, PGE2 EC50 shift by compound; measured here: PGE2 EC50 at 6.7 uM compound

Sequence of Prostaglandin E2 receptor EP2 subtype (Homo sapiens) (P43116 whole entry, looked up): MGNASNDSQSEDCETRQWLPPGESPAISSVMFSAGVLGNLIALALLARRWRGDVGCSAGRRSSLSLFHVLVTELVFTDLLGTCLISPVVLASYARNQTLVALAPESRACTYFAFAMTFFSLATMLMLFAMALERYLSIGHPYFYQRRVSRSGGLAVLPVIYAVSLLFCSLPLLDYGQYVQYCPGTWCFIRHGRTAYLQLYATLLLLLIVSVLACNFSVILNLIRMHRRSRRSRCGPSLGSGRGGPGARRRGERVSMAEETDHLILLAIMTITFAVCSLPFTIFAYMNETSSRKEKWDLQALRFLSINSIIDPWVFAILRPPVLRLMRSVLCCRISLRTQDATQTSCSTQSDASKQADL

Compound	PGE2 EC50 with compound
CCOc1ccccc1COC(=O)c1cccc(-n2cnnn2)c1	1.06 nM
COc1cccc2[nH]c3c(N4CC(C)CC(C)C4)ncnc3c12 (stereo not drawn)	1.15 nM
COc1ccc(C2CC(c3cccs3)=NN2C(=O)c2ccc(Br)o2)cc1 (stereo not drawn)	1.25 nM
CCOC(=O)c1oc2ccccc2c1NC(=O)c1ccccc1OC	1.25 nM
Nc1n[nH]c2c1C1(CCCCC1)Cc1ccccc1-2	2.69 nM
C[C@]12CCC(=O)C=C1CCC1C2CC[C@@]2(C)C1CC[C@@H]2O (stereo partly drawn)	1.55 nM
CCOC(=O)c1c(-c2ccc(C)o2)csc1NC(=O)CN1CCCCC1	0.73 nM
CCn1c2ccc(F)cc2c2nc3ccccc3nc21	0.86 nM
O=C1CCCc2ccccc2N1Cc1cccc(Cl)c1	2.62 nM
O=C(/C(=C/O)N=Nc1ccccc1)c1ccc(Cl)cc1	1.12 nM
COc1ccc(OCC(=O)NC(=S)Nc2ccc3c4c(cccc24)CC3)cc1	2.85 nM
O=C(Nc1ccccc1-c1nc2ccccc2s1)C1=COCCO1	0.46 nM
CC(C)(Sc1ccc(CCN(CCCCC2CCCCC2)C(=O)NC2CCCCC2)cc1)C(=O)O	1.23 nM
C[N+]1(C)CCOC(O)(c2ccc(-c3ccc(C4(O)C[N+](C)(C)CCO4)cc3)cc2)C1 (stereo not drawn)	0.14 nM
CCOC(=O)c1c(NC(=O)c2ccc(-n3cnnn3)cc2)sc2c1CCCC2	0.85 nM
Cc1sc2ncnc(N(C)Cc3cccs3)c2c1C	2.57 nM
Cc1ccc(C)c(CN2C(=O)C(C)Oc3ccc(C)cc32)c1 (stereo not drawn)	0.31 nM
CC1=CC2C(CC1=O)C(C)=CCC2C(C)C (stereo not drawn)	0.86 nM
N#Cc1c(-c2cccs2)nc(SCc2ccc(Cl)cc2)[nH]c1=O	2.85 nM
O=S(=O)(Nc1ccccc1N1CCCCC1)c1ccc(Cl)s1	1.49 nM

Compound	PGE2 EC50 with compound
CCCCC(=O)Nc1sc2c(c1C(=O)OCC)CCC(C=O)=C2Cl	0.91 nM
CC(C)NC(=O)NC(=O)CSc1nnc(COc2ccccc2F)n1C(C)C1CC2CCC1C2 (stereo not drawn)	1.06 nM
CC(C)OC(=O)c1c(NC(=O)c2ccco2)sc2c1CCCCC2	0.74 nM
COc1ccccc1CNc1cc(C)ccc1C	0.77 nM
CCCCOC(=O)CSc1nc(N)c(C#N)c(-c2ccc(OCC)cc2)c1C#N	1.39 nM
O=C(CNCC1CCCCC1)Nc1ccccc1N1CCCCC1	0.81 nM
CCOC(=O)Cc1csc(NC(=O)c2cc(=O)c3ccccc3o2)n1	1.36 nM
CC(C)n1c2ccccc2c2nnc(SCC(=O)Nc3ccccc3C(=O)O)nc21	2.65 nM
Clc1ccc(Cl)c(Nc2ccnc(SCc3ccccc3)n2)c1	0.64 nM
CC1=Nc2ccccc2/C1=C/c1sc(=S)n(-c2cccc(C(=O)O)c2)c1O	0.4 nM
CC(C)c1nc(SCc2c(F)cccc2Cl)c2c(=O)n(C)c(=O)n(C)c2n1	0.55 nM
COc1ccc(C(=O)Nc2ccccc2N2CCCCC2)cc1[N+](=O)[O-]	1.01 nM
O=C1CCCc2ccccc2N1Cc1c(Cl)cccc1Cl	1.04 nM
CCc1cc2cc3c(cc2nc1SCC(=O)OC(C)C)OCO3	0.7 nM
Cc1ccccc1CSCC(=O)Nc1ccccc1-c1ccccc1	1.02 nM
CC(C)CNC(=O)C(=O)NNC(=O)c1ccco1	2.49 nM
CCN1C(=O)/C(=C2/C=CC=CN2C)SC1=S	1.64 nM
O=P(c1ccccc1)(c1ccccc1)c1nc(-c2ccccc2)oc1NCc1ccccc1	0.33 nM
COC(=O)NC1(C(F)(F)F)C(=O)NC(C)=C1C(=O)OC (stereo not drawn)	1.02 nM
COC(=O)c1sccc1NC(=O)c1cc2c(s1)CCCC2	1.01 nM

Compound	PGE2 EC50 with compound
CCOC(=O)C1CCN(c2c(-c3ccccc3)c3cc(Cl)ccc3[nH]c2=O)CC1	1.03 nM
O=C(O)c1cc2c(s1)-c1ccccc1OC2	0.91 nM
CC(C)Cc1nc(SCc2cccnc2)c2c(=O)n(C)c(=O)n(C)c2n1	0.67 nM
Cc1ccc2c(c1)-c1nc3ccccc3cc1C2=NC1CCCCC1	1.41 nM
CCOC(=O)c1c(NC(=O)Cn2nnc3ccccc32)sc2c1CCC(C)C2 (stereo not drawn)	1.14 nM
COCC(=O)Nc1sc2c(c1C(=O)OC)CCC(C)C2 (stereo not drawn)	1.32 nM
COc1ccc(Cl)cc1-n1c(C)ccc1C	1.06 nM
O=S(=O)(c1ccc(F)c(Cl)c1)N1CCCC1	1.02 nM
O=C(CN1CCCCC1)N1c2ccccc2Sc2ccc(C(F)(F)F)cc21	1.45 nM
Brc1ccc(Cn2c(-c3cncs3)nc3ccccc32)cc1	1.66 nM
Cc1ccccc1N=C1SCC(=O)N1Cc1ccccc1	1.2 nM
COc1ccc(C(=O)NCC(=O)n2nc(C)cc2C)cc1OC	1.6 nM
CCC(=O)N1CCN(c2nc(-c3ccccc3)c3c(c2C#N)CCCC3)CC1	0.91 nM
Cc1cc(C(=O)CSc2nc3ccccc3c(=O)n2C)c(C)n1Cc1ccc2c(c1)OCO2	3.33 nM
COc1ccc(OC)c(/C=C/C(=O)N2CCCc3ccccc32)c1	1.13 nM
CCOC(=O)C1CCCN(c2c(C(=O)c3ccccc3)cnc3ccc(OC)cc23)C1 (stereo not drawn)	1.15 nM
O=C(CSc1ncnc2c1oc1ccccc12)Nc1ccccc1C(F)(F)F	1.17 nM
C/C(=N\N(Cc1ccccc1)c1ccccc1)c1cccnc1	1.38 nM
